# Values quoted from earlier work, collected in patent US20230405034A1, “FORMULATION OF IVERMECTIN IN SOFT GELATIN CAPSULES” (PROCAPS S.A., priority 2020, published 2023).
# Assays:
# [1] = system: SARS-CoV-2; conditions: SARS-CoV-2 in vitro, after 48 hours; cited from earlier work
# [2] = cited from earlier work
# [3] = system: pseudorabies DNA virus (PRV); conditions: ivermectin treatment; cited from earlier work
# [4] = in vivo; cited from earlier work
substance,measurement,setting,value
Ivermectin,reduction in viral RNA,[1],"approximately 5,000 fold"
same,solubility in water,[2],practically insoluble in water
same,survival in PRV-infected mice,[3],increases survival
medium chain triglycerides,plasma half-life,[4],approximately 17 minutes
